One may read the Ki as the equilibrium dissociation constant of an inhibitor or competing ligand from its target. A low value points to tighter binding. The term Kb denotes the affinity of an antagonist, worked out from how it opposes an agonist.

Assay [1] addresses 5-hydroxytryptamine receptor 7 (Homo sapiens, UniProt P34969). In words: Displacement of [3H]-5-CT from 5-HT7b receptor (unknown origin). (In general: Loss of bound radioactivity is the signal in a displacement assay; it reports binding, not function.)
For assay [2], the target named is T1, 5-hydroxytryptamine receptor 1A (Homo sapiens, UniProt P08908).
T1 sequence (P08908 whole entry): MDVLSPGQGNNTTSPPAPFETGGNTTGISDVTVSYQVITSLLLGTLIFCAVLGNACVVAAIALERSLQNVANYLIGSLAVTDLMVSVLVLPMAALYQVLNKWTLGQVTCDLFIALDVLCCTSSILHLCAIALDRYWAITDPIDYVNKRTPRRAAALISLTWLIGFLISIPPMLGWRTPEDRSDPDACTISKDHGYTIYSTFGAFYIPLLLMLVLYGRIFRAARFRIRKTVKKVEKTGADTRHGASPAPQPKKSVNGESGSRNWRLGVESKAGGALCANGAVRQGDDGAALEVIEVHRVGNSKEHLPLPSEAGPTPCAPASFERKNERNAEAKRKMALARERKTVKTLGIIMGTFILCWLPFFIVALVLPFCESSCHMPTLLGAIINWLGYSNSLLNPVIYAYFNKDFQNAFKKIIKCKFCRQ
In words: Displacement of [3H]-8-OH-DPAT from 5HT1A receptor (unknown origin).

The target in assay [3] is D(2) dopamine receptor (Homo sapiens, UniProt P14416). In words: Displacement of [3H]-Raclopride from D2L receptor (unknown origin).
Chain of D(2) dopamine receptor (P14416 whole entry): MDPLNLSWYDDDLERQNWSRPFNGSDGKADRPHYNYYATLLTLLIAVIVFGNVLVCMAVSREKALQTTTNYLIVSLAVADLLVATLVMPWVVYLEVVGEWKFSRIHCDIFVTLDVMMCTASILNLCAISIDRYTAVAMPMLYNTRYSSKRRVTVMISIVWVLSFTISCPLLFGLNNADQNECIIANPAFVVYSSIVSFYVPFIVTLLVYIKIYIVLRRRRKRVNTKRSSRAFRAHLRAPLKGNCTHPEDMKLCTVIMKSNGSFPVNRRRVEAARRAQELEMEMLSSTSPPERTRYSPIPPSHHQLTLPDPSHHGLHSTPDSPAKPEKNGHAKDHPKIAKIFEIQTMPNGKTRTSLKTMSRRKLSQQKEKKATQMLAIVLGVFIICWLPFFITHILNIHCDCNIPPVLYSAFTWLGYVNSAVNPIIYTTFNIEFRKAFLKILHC
Assay [4] addresses T2, 5-hydroxytryptamine receptor 6 (Homo sapiens, UniProt P50406). Briefly: Displacement of [3H]-LSD from 5-HT6 receptor (unknown origin).
Assay [5] deals with T2, 5-hydroxytryptamine receptor 6. Briefly: Antagonist activity at 5-HT6 receptor (unknown origin) expressed in HEK293 cells assessed as inhibition of 5-CT induced cAMP production after 30 mins by TR-FRET assay. Type of assay: functional, cell-based.
The target of assay [6] is 5-hydroxytryptamine receptor 2A (Homo sapiens, UniProt P28223). Briefly: Binding affinity to 5HT2A receptor (unknown origin).
Chain of 5-hydroxytryptamine receptor 2A (P28223 whole entry): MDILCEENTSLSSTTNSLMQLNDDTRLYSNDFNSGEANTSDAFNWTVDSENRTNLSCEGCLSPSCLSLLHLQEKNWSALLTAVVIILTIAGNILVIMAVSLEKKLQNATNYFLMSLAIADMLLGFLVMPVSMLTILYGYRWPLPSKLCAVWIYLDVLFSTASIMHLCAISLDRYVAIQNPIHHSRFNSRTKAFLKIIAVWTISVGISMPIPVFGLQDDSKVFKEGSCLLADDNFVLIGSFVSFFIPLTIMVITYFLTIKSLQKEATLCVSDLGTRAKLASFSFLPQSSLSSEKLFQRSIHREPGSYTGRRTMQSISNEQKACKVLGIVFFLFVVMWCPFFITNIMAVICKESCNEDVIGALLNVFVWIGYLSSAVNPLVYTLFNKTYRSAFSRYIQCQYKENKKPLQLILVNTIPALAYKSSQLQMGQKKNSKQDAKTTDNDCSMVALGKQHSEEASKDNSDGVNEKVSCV

T2 sequence (P50406 whole entry): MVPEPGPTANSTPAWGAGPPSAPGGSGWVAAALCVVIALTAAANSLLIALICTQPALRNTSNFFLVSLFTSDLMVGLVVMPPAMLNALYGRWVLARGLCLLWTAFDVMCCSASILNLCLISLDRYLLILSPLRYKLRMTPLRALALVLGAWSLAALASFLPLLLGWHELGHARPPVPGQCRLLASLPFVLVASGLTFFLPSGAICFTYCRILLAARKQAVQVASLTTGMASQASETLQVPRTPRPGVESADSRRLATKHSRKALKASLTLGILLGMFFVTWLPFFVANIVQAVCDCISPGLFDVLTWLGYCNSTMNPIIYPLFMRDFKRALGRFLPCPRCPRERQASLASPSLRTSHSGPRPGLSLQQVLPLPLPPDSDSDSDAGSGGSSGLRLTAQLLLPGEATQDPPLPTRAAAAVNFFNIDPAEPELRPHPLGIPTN
Chain of 5-hydroxytryptamine receptor 7 (P34969 whole entry): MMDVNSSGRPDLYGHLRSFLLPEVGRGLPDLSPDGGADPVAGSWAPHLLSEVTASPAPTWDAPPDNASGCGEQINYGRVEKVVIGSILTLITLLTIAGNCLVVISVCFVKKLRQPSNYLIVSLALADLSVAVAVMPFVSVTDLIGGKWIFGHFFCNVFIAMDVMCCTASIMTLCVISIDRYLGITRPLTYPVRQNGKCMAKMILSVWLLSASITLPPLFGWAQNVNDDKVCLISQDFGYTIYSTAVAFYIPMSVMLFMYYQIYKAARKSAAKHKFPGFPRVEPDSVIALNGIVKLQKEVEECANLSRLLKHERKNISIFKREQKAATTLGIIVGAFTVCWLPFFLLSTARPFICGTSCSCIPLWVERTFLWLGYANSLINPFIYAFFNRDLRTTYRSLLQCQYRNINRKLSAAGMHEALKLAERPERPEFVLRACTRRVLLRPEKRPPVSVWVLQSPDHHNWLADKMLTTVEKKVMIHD

Take `O=CC1=Cc2cn(S(=O)(=O)c3cccc4ccccc34)c3cccc(c23)O1`: the Ki in assay [1] was > 10 µM; in assay [2], > 10 µM; in assay [3], 5.16 µM; in assay [4] it was 266 nM.
As to `O=S(=O)(c1ccccc1)n1cc2c3c(cccc31)OC(CO)=C2`, the Kb in assay [5] came out at 16 nM. Further, the Ki was > 10 µM in assay [1]; > 10 µM in assay [2]; > 10 µM in assay [3]; 36 nM in assay [4]; > 10000 nM in assay [6].
In the case of `CC1=C(CO)Oc2cccc3c2c1cn3S(=O)(=O)c1cccc2ccccc12`, the Ki in assay [1] was > 10 µM; in assay [2], > 10 µM; in assay [3], > 10 µM; in assay [4], 20 nM; in assay [6], > 10000 nM.
For `N#CC1=Cc2cn(S(=O)(=O)c3cccc4ccccc34)c3cccc(c23)O1`, the Ki in assay [1] was > 10 µM; in assay [2], > 10 µM; in assay [3], > 10 µM; in assay [4], 755 nM.
Consider `CN(C)CC1=Cc2cn(S(=O)(=O)c3cccc4ccccc34)c3cccc(c23)O1`, for which the Ki in assay [1] was 0.438 µM; in assay [2], 5.97 µM; in assay [3] it was 1.49 µM; in assay [4], 1 nM; in assay [6] it was 489 nM.
On to `O=S(=O)(c1cccc2ccccc12)n1cc2c3c(cccc31)OC(CO)=C2`, for which the Ki is > 10 µM in assay [1], 4.29 µM in assay [3], 4 nM in assay [4] and > 10000 nM in assay [6].
`CC1=C(CO)Oc2cccc3c2c1cn3S(=O)(=O)c1ccccc1`: the Ki in assay [1] is > 10 µM; in assay [2], > 10 µM; in assay [3], > 10 µM; in assay [4] it was 52 nM; in assay [6] it was > 10000 nM.
`CCN(CC)CC1=Cc2cn(S(=O)(=O)c3ccccc3)c3cccc(c23)O1`: the Ki in assay [1] is > 10 µM; in assay [2], > 10 µM; in assay [3], 4.35 µM; in assay [4] it was 28 nM; in assay [6], 1700 nM.
With `CN(C)CC1=Cc2cn(S(=O)(=O)c3ccccc3)c3cccc(c23)O1`, the Ki was 3.69 µM in assay [1]; > 10 µM in assay [2]; 6.7 µM in assay [3]; 5 nM in assay [4]; 65 nM in assay [6].

Values taken from ChEMBL document CHEMBL3994665, “Pyrano[2,3,4-cd]indole as a Scaffold for Selective Nonbasic 5-HT6R Ligands” (ACS Med Chem Lett, 2017).
